Measurements reported in publication PMC9837035 (Nature Communications, 2023).
Values joined by “and” are separate entries in the source; they are usually repeats but may differ in a detail not shown here. Equal entries are not always repeated. Where two headings read alike, the source gives them in different places.

Experiments:
[1] = biological target: NSD2 (Homo sapiens, UniProt O96028); experiment: Radioisotope-based methyltransferase assay (selectivity)
[2] = biological target: T1, ASH1L (Homo sapiens, UniProt Q9NR48); experiment: as above; type: biochemical; conditions: ASH1L, read-out: IC50
T1 construct: purchased Reaction Biology

[3] = biological target: PRMT8 (Homo sapiens, UniProt Q9NR22); experiment: as above
[4] = biological target: NSD2 (T1150A) (Homo sapiens, UniProt O96028, T1150A)
[5] = tested on: HUDEP-2 cells; experiment: RNA-seq analysis of HUDEP-2 cells; type: cell-based, human
Experimental: Total RNAs were extracted using an RNeasy Plus Mini Kit (QIAGEN). RNA-seq experiments were performed by GENEWIZ or Rhelixa. Gene Ontology (GO) analysis in Supplementary Fig. 7a, the statistical test was performed by Wallenius in goseq software. In Supplementary Tables 8(1-3), the statistical test (adjp) was determined using multiple comparisons analysis, Benjamini-Hochberg adjusted FDR test of the default of AltAnalyze (Ver. 2.0).

[6] = biological target: MLL4
[7] = tested on: H3K9me2 in HUDEP-2 cells; experiment: Western blotting of H3K9me2 in HUDEP-2 cells; type: cell-based, human; conditions: HUDEP-2, 4 days
Experimental: Preparation of cell lysates and western blotting were performed as described previously. Protein from cells lysates in lysis buffer (50 mM Tris-HCl (pH 7.5), 150 mM NaCl, 5 mM EDTA, 0.1% NP-40, 1 mM dithiothreitol) were separated by sodium dodecyl sulfate–polyacrylamide gel electrophoresis (SDS-PAGE) and transferred to a polyvinylidene difluoride (PVDF) membrane (Millipore) by electroblotting. The membranes incubated with primary antibodies overnight at 4 °C and secondary antibodies for 1 h at room temperature. The immune complexes were detected with the Immobilon Western Chemiluminescent HRP Substrate (Millipore). Luminescence was analyzed on a FUSION SOLO S (Vilber). Western blot bands were visualized using Evolution Capt software (M&S Instruments Inc.). Primary antibodies used were anti-G9a (1:1000, CST, #3306), anti–α-tubulin (1:5000, Abcam, ab18251), anti-H3K9me2 (1:3000, Abcam, ab1220), anti-H3 (1:5000, Abcam, ab1791), anti-H3K27me3 (1:3000, Sigma, 07-449), anti-GLP (1:1000, CST, #35005), anti-FLAG (100 ng/ml, Fujifilm, 01422383), anti-His (1:5000, MBL, PM032), anti-BCL11A (1:1000, abcam, ab19487), anti-ZBTB7A (1:1000, CST, #50565), anti-CHD3 (1:1000, Novus Biologicals, NB100-60412), and anti-CHD4 (1:1000, abcam, ab240640). Uncropped scans of all of the blots are available in Source Data file.

[8] = Liver microsomal stability assay, human; type: in vitro ADME; conditions: for Metabolic stability, % remaining of RK-701: Human
Experimental: [Human/Rat] Liver microsome analyses (human, rat) were performed in triplicate by the Sumika Chemical Analysis Service (SCAS) according to the standard protocols. […] [Dog/Monkey] Liver microsome analyses (dog, monkey) were performed in duplicate by RIKEN according to the same protocols as SCAS.

[9] = biological target: MLL4 (Homo sapiens, UniProt Q9UMN6)
Chain of MLL4 (Homo sapiens, UniProt Q9UMN6) (Q9UMN6 2490-2715): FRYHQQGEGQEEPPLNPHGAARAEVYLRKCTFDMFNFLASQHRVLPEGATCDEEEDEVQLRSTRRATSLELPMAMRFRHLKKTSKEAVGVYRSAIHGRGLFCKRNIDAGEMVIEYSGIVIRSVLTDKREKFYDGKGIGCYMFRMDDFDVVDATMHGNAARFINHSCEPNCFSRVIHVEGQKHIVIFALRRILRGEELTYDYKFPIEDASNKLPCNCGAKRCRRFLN
Chain of MLL4 (Homo sapiens, UniProt Q9UMN6) (Q9UBL3 whole entry, further chain): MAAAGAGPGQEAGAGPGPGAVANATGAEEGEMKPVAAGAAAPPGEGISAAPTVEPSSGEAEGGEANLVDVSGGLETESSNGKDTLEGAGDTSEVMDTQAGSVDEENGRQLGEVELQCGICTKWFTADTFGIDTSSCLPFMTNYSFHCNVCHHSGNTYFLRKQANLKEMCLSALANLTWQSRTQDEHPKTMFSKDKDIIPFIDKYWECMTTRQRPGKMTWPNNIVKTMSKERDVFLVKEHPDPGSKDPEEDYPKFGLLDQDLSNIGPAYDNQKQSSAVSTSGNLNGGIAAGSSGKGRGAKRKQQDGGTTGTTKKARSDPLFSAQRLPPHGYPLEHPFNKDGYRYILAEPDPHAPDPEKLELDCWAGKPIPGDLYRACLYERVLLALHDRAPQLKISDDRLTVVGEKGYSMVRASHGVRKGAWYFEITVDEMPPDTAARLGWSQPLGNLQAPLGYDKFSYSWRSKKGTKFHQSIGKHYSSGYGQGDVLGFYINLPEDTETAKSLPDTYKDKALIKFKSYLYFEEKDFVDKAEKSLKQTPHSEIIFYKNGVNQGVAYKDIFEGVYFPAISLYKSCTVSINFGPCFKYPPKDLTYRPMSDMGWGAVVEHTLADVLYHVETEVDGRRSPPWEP
Chain of MLL4 (Homo sapiens, UniProt Q9UMN6) (Q9C005 whole entry, further chain): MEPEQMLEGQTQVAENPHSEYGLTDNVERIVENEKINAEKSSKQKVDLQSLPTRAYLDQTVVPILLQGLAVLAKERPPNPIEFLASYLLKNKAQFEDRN
Chain of MLL4 (Homo sapiens, UniProt Q9UMN6) (Q15291 whole entry, further chain): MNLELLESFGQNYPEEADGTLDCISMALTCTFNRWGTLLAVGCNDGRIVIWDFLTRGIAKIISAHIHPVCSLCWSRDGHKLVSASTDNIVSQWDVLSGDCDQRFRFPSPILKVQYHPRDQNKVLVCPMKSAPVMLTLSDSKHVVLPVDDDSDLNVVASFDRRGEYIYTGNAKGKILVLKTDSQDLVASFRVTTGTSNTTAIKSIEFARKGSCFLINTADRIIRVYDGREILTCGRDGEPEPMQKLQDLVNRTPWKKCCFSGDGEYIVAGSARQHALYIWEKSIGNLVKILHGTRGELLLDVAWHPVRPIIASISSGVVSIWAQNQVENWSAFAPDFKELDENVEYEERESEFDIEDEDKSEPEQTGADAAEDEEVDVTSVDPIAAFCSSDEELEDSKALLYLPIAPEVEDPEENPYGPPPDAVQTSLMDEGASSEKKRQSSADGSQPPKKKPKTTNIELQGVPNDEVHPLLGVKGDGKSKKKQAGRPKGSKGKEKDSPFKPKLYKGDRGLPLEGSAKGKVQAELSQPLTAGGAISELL

Chain of PRMT8 (Q9NR22 whole entry): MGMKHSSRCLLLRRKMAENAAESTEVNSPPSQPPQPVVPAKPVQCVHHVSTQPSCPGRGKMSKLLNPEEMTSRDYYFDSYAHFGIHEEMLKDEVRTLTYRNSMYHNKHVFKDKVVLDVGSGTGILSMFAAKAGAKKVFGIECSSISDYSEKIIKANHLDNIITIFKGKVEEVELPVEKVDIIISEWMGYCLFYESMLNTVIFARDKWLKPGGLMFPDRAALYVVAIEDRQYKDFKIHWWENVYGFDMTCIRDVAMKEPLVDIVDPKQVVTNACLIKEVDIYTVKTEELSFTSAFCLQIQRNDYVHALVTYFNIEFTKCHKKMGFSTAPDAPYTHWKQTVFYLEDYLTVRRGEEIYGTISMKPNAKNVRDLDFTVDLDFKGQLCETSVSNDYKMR
Chain of MLL4 (Q9UMN6 2490-2715): as the sequence (Q9UMN6 2490-2715) above
Chain of MLL4 (Q9UBL3 whole entry, further chain): as the sequence (Q9UBL3 whole entry, further chain) above
Chain of MLL4 (Q9C005 whole entry, further chain): as the sequence (Q9C005 whole entry, further chain) above
Chain of MLL4 (Q15291 whole entry, further chain): as the sequence (Q15291 whole entry, further chain) above
Chain of NSD2 (O96028 whole entry): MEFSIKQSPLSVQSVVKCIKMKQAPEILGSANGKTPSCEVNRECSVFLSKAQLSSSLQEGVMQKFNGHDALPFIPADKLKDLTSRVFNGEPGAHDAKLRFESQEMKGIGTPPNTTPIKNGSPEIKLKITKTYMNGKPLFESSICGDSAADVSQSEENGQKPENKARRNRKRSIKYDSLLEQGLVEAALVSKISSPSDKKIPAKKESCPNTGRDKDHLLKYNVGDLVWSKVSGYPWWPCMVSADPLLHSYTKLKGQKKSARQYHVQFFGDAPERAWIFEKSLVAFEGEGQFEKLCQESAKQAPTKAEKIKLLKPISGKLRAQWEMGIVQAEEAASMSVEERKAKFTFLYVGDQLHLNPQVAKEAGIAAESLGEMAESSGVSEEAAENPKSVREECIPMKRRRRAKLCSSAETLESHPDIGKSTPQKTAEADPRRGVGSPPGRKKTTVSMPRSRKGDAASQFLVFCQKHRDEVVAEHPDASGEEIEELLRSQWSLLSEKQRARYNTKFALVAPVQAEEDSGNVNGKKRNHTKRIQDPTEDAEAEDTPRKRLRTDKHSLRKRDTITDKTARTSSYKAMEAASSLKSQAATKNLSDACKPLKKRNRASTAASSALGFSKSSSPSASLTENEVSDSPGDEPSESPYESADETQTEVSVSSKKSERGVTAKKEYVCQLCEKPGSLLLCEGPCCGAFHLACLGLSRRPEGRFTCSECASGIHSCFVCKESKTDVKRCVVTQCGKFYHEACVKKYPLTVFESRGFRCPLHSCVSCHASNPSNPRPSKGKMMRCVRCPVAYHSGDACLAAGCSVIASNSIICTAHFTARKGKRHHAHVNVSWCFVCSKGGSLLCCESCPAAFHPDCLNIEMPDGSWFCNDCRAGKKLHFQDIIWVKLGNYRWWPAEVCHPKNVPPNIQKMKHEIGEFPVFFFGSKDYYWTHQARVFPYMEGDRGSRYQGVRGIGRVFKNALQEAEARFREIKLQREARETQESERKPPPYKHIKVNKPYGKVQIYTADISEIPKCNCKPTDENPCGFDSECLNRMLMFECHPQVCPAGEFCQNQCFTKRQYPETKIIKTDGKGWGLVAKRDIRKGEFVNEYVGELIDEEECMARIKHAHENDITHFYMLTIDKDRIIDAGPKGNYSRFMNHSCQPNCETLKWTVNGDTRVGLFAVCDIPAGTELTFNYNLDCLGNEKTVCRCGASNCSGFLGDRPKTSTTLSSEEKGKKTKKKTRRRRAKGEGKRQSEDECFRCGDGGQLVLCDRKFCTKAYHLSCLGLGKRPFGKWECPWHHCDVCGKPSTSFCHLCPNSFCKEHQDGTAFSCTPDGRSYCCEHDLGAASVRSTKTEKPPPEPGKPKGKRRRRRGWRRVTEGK
Chain of NSD2 (T1150A) (O96028 whole entry T1150A): as the sequence (O96028 whole entry) above, with T1150A counted along it

## Cc1c(C(=O)NC(CCC2CC2)C(=O)Nc2ccc(C#N)cc2)[nH]c2c1C(=O)CC(C)(C)C2 (stereo not shown) [RK-701]
[1]
  IC50: > 100 µM
[2]; 1 μM SAM
  IC50: 79.4 µM
[2]; RK-701 in duplicate
  IC50: 80.4 µM and 78.4 µM
[3]
  IC50: > 100 µM
[4]
  IC50: > 100 µM
[5]; HUDEP-2
  FoldChange BCL11A: 1.17±0.09
  FoldChange BGLT3: 3.40±0.34
  FoldChange CHD3: 0.88±0.02
  FoldChange CHD4: 1.00±0.02
  FoldChange DNMT1: 0.97±0.02
  FoldChange GATA1: 0.97±0.04
  FoldChange GATAD2A: 0.96±0.03
  FoldChange GATAD2B: 1.02±0.04
  FoldChange HBA1: 1.15±0.13
  FoldChange HBA2: 1.19±0.04
  FoldChange HBBP1: 0.99±0.02
  FoldChange HBD: 1.01±0.03
  FoldChange HBE1: 4.70±0.71
  FoldChange HBG1: 2.51±0.58
  FoldChange HBG2: 3.33±0.28
  FoldChange HBM: 0.96±0.04
  FoldChange HBQ1: 1.09±0.05
  FoldChange HBZ: 0.31±0.08
  FoldChange HDAC1: 0.96±0.03
  FoldChange HDAC2: 0.95±0.03
  FoldChange IKZF1: 1.07±0.01
  FoldChange KLF1: 1.02±0.02
  FoldChange LDB1: 1.03±0.04
  FoldChange LIN28B: 0.91±0.07
  FoldChange LMO2: 1.28±0.04
  FoldChange MBD2: 1.03±0.02
  FoldChange MBD3: 0.96±0.02
  FoldChange MIR26B: 0.96±0.78
  FoldChange MTA1: 0.92±0.04
  FoldChange MTA2: 0.95±0.02
  FoldChange MYB: 0.91±0.01
  FoldChange NR2C1: 1.11±0.04
  FoldChange NR2C2: 0.97±0.04
  FoldChange RBBP4: 0.96±0.03
  FoldChange RBBP7: 0.98±0.03
  FoldChange SOX6: 1.70±0.07
  FoldChange TAL1: 1.12±0.04
  FoldChange TCF3: 0.92±0.02
  FoldChange ZBTB7A: 0.98±0.04
  FoldChange ZFPM1: 0.90±0.09
  number of genes transcriptionally upregulated: 204 genes
[5]; HUDEP-2, 1 μM, 4 days
  FoldChange HBB: 1.13±0.05
  log2FoldChange CTD-2643I7.1 (BGLT3): 1.72
  log2FoldChange HBE1: 2.16
  log2FoldChange HBG1: 1.23
  log2FoldChange HBG2: 1.73
  log2FoldChange HBZ: -1.67
[6]
  IC50: > 100 µM
[7]
  cellular H3K9me2 levels: dose-dependent reduction
[8]; Time 5, replicate values
  Metabolic stability, % remaining of RK-701: 103.5% and 98.1%
[8]; Time 10, replicate values
  Metabolic stability, % remaining of RK-701: 104.9% and 98.1%
[8]; Time 20, replicate values
  Metabolic stability, % remaining of RK-701: 89.6% and 79.6%
[8]; Time 30, replicate values
  Metabolic stability, % remaining of RK-701: 78.5% and 70.7%
[8]; Time 60, replicate values
  Metabolic stability, % remaining of RK-701: 68.6% and 60.8%
[8]; human, liver microsomes, Metabolic stability, % remaining of RK-701, Human, Time 5, replicate values
  remaining at 5 min, 1 µM: 93.1%
[8]; human, liver microsomes, Metabolic stability, % remaining of RK-701, Human, Time 10, replicate values
  remaining at 10 min, 1 µM: 95.5%
[8]; human, liver microsomes, Metabolic stability, % remaining of RK-701, Human, Time 20, replicate values
  remaining at 20 min, 1 µM: 80.5%
[8]; human, liver microsomes, Metabolic stability, % remaining of RK-701, Human, Time 30, replicate values
  remaining at 30 min, 1 µM: 70.4%
[8]; human, liver microsomes, Metabolic stability, % remaining of RK-701, Human, Time 60, replicate values
  remaining at 60 min, 1 µM: 62.1%
[8]; human, liver microsomes, read-out: Metabolic stability in liver microsomes CLint
  microsomal CLint at 1 μM: 19 µL/min/mg
[8]; various species
  stability in liver microsomes: most stable in human liver microsomes

## Nc1ncnc2c1ncn2[C@@H]1O[C@H](CSCC[C@H](N)C(=O)O)[C@@H](O)[C@H]1O [SAH, S-(5'-Adenosyl)-L-homocysteine, reference compound]
[9]
  IC50: 1.13 µM
